Laboratory results: ChEMBL document CHEMBL1201862, “PubChem BioAssay data set” (2004)
Active and inactive are the calls of the source.

Assays:
[1] = Shn3 3'UTR reporter inhibitors, dose response, cell-based, Clone20 osteoblasts, firefly luciferase, cherry-picked (AID 624132); assay type: functional;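 also: firefly luciferase luminescence from reporter carrying the Shn3 3'UTR in osteoblasts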
[2] = control 3'UTR Renilla luciferase suppression, dose response, counter-screen for Shn3 inhibitor project, cell-based, Clone20-Shn3RL, cherry-picked (AID 624133); assay type: functional
[3] = HepG2 cell cytotoxicity, dose response, cytotoxicity control for Shn3 inhibitor project, CellTiter-Glo, cherry-picked (AID 624134); assay type: functional, cell-based
[4] = inhibitors of control Renilla luciferase reporter, dose response, counter-screen for Shn3 3'UTR targeting project, Clone20-Shn3RL cells, dual-Glo, cherry-pick, set 2 (AID 720724); assay type: functional, cell-based; details: Dual-Go Shn3RL
[5] = reduction of Shn3 3'UTR firefly luciferase signal, dose response, Schnurri-3 inhibitor project, cell-based, Clone20 osteoblasts, cherry-pick, set 2 (AID 720490); assay type: functional;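 also: actives lower the luminescence signal as inhibitors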
[6] = biological target: Tyrosyl-DNA phosphodiesterase 2 (Homo sapiens, UniProt O95551); experiment: human TDP2 enzyme inhibitors, dose response, biochemical, epi absorbance, IC50 (AID 743297)
Sequence of Tyrosyl-DNA phosphodiesterase 2 (O95551 whole entry): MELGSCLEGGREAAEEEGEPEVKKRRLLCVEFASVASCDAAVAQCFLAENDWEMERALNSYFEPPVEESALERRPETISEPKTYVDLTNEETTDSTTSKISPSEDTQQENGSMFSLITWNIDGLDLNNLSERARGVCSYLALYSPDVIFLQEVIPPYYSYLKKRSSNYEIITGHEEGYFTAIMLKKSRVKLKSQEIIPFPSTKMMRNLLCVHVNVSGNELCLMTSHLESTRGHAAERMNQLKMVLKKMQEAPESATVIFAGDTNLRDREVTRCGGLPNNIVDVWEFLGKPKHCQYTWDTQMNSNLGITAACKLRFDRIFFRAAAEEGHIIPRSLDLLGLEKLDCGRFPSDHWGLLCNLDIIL

[7] = biological target: Mitochondrial peptide methionine sulfoxide reductase (Bos taurus, UniProt P54149); assay type: functional;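 also: absorbance read-out, biochemical high-throughput dose-response screen for MsrA inhibitors, confirmatory; recombinant bovine MsrA coupled to E. coli TrxB with NADPH and selenocystamine; potency is for inhibitors of MsrA activity on DMSO substrate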
Sequence of Mitochondrial peptide methionine sulfoxide reductase (P54149 whole entry): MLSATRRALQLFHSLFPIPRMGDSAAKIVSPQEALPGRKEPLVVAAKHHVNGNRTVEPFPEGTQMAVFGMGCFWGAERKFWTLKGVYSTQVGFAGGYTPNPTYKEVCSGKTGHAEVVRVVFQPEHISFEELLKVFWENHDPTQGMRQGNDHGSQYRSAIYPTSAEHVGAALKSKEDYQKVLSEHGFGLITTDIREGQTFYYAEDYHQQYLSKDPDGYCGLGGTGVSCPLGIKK

[8] = biological target: T1, Apoptotic protease-activating factor 1 (Homo sapiens, UniProt O14727); assay type: functional
T1 sequence (O14727 whole entry): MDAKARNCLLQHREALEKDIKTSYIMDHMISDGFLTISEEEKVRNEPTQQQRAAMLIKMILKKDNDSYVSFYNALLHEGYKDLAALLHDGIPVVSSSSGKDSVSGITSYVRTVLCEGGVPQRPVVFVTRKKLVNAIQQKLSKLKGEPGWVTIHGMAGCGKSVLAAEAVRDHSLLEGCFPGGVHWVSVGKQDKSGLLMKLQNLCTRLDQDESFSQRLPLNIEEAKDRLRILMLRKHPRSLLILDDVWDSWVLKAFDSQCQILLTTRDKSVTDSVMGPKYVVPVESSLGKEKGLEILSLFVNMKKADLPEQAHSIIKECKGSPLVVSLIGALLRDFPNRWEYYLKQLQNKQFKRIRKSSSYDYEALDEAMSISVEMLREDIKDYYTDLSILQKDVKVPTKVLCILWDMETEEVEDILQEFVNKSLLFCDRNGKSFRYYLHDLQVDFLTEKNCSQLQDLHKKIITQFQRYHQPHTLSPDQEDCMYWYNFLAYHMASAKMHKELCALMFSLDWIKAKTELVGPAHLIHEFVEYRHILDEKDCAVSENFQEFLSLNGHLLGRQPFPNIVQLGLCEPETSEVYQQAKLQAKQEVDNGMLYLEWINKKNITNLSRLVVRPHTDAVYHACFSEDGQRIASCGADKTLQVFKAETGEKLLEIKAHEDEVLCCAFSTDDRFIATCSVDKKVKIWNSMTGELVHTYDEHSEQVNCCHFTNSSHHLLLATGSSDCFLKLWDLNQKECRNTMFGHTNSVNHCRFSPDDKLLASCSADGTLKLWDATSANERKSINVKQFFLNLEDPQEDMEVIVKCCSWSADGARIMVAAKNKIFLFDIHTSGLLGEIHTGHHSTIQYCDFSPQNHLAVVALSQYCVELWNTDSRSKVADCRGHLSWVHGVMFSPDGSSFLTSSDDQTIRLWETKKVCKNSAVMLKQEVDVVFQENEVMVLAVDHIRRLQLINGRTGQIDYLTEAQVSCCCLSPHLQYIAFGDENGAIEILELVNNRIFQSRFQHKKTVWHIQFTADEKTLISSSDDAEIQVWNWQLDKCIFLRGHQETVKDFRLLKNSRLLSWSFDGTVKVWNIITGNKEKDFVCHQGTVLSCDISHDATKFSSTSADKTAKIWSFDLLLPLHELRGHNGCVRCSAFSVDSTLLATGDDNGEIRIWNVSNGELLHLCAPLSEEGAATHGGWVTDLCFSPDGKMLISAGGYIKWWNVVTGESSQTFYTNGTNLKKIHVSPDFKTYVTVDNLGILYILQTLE

[9] = biological target: T2, Replicative DNA helicase DnaB (Mycobacterium tuberculosis, UniProt P9WMR3); experiment: DnaB intein splicing inhibitors, dose response, biochemical, cell-free fluorescence (AID 449749); assay type: functional
T2 sequence (P9WMR3 whole entry): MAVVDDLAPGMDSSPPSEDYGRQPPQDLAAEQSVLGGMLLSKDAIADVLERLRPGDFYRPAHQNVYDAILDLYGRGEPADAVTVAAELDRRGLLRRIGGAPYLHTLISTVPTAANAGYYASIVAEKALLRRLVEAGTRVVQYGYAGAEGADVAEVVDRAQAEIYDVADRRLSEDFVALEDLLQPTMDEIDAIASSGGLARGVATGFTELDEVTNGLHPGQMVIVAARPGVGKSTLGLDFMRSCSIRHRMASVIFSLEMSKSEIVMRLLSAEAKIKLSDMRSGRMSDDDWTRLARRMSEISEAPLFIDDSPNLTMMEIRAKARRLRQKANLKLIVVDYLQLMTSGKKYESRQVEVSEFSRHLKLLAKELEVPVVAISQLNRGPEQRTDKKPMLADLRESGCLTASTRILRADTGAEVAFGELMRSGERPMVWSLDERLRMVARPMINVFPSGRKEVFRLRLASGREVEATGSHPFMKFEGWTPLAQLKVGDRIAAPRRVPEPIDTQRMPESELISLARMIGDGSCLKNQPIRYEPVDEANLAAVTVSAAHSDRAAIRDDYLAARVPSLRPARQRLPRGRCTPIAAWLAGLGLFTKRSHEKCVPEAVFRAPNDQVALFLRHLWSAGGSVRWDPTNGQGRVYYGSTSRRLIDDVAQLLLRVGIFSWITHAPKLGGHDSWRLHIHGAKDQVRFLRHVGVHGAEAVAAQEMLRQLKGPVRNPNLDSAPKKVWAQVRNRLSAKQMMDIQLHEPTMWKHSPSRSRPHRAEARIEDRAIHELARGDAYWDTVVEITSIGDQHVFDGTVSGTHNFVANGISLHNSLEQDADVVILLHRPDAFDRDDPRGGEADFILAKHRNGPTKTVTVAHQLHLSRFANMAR

Protein RecA = biological target: T3, Protein RecA (Mycobacterium tuberculosis, UniProt P9WHJ3); experiment: Fluorescence Cell-Free Homogeneous Dose Retest to Identify Inhibitors of RecA-Intein Splicing Activity. [Related pubchem assays (depositor defined):AID2097, AID2223, AID489010, AID492950]; assay type: functional
T3 sequence (P9WHJ3 whole entry): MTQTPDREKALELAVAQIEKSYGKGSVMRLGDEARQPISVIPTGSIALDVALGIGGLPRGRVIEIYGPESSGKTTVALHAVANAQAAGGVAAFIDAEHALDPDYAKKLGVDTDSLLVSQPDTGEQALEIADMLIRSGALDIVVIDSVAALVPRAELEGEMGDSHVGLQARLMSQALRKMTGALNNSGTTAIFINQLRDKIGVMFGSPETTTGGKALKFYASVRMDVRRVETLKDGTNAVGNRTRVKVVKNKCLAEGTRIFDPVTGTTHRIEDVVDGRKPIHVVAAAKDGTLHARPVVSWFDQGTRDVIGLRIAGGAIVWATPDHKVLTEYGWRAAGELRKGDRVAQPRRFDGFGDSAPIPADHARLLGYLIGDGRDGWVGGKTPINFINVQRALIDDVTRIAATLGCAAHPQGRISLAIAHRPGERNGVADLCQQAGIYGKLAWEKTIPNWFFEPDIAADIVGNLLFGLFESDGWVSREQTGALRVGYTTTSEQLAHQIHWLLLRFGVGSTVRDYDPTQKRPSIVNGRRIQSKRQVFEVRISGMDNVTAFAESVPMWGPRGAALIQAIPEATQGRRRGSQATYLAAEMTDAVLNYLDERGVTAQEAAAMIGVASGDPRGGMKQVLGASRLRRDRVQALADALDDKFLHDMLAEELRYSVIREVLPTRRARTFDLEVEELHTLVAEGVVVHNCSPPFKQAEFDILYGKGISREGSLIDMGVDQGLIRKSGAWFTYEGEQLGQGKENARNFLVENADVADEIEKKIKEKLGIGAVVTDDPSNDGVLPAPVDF

[10] = inhibitors of intracellular T. cruzi replication, confirmation, NIH3T3 host cells, beta-gal luminescence (AID 2044); assay type: functional, cell-based;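 also: intracellular parasites grown in NIH/3T3 mouse fibroblasts as host cells; luminescent beta-galactosidase reporter signal from transgenic T. cruzi replicating inside host cells; inhibitors lower the luminescence signal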
[11] = cytotoxicity toward NIH3T3 fibroblasts, dose response, counter-screen, cell-based, ATP luminescence, mouse fibroblasts (AID 2010); assay type: functional;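 also: cells exposed to compound for about 90 hours before reading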
[12] = biological target: Fructose-bisphosphate aldolase (Mycobacterium tuberculosis, UniProt P9WQA3); experiment: Fluorescence-based biochemical high throughput dose response assay for inhibitors of the fructose-bisphosphate aldolase (FBA) of M. tuberculosis.; assay type: functional
Sequence of Fructose-bisphosphate aldolase (P9WQA3 whole entry): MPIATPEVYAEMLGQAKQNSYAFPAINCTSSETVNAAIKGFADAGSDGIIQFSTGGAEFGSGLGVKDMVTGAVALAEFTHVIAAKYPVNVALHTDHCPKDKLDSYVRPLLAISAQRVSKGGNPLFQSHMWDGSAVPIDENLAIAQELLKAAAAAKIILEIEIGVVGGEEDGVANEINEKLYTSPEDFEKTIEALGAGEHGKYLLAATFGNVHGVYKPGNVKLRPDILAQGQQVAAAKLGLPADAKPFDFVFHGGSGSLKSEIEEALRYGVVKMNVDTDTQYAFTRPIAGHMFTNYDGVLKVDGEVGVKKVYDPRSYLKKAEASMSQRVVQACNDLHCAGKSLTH

Protein Tat = Protein Tat (Human immunodeficiency virus type 1 group M subtype B (isolate HXB2)(HIV-1), UniProt P04608); assay type: functional;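 also: tat binding to TAR RNA read out by fluorescence polarization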
Sequence of Protein Tat (P04608 whole entry): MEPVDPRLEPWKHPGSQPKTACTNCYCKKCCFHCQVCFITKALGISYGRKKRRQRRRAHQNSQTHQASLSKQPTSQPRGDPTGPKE

[13] = biological target: T4, Trace amine-associated receptor 1 (Homo sapiens, UniProt Q96RJ0); experiment: Fluorescence-based cell-based high throughput dose response assay to identify agonists of the human trace amine associated receptor 1 (TAAR1).; assay type: functional
T4 sequence (Q96RJ0 whole entry): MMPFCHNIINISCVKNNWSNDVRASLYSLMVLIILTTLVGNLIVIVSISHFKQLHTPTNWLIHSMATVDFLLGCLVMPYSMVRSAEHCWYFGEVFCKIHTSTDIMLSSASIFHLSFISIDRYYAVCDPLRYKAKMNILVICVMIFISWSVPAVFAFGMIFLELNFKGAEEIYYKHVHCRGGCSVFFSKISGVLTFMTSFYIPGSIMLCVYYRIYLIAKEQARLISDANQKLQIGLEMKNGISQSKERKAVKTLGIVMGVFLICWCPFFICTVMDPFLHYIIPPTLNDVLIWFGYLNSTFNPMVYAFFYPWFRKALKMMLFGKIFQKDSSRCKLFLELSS

cells [14] = assay type: functional, cell-based
[15] = biological target: T4, Trace amine-associated receptor 1; experiment: Counterscreen for agonists of the human trace amine associated receptor 1 (hTAAR1): Fluorescence-based cell-based high throughput dose response assay to identify hTAAR1 agonist that also desensitize TAAR1 receptor response.; assay type: functional
cells [16] = assay type: functional, cell-based; remark: listed apart in the source
[17] = ZM109 Env clade C HIV-1 fusion inhibitors, dose response, HeLa effector, CEM target cells, luciferase, cherry-pick (AID 652058); assay type: functional, cell-based
[18] = CEM21 lymphoblast cell cytotoxicity, dose response, cytotoxicity control for viral fusion inhibitor project, CellTiter-Glo luminescence, cherry-picked (AID 652042); assay type: functional, cell-based;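 also: potency for signal decrease meaning cytotoxicity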
[19] = inhibitors of HIV Env-driven cell fusion, dose response, cherry-pick (AID 652057); assay type: functional, cell-based
[20] = inhibitors of clade B AD8 Env fusion, dose response, cell-based, cherry-pick (AID 652062); assay type: functional;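 also: luciferase signal from cell-cell fusion driven by HIV-1 clade B AD8 Env; potency is for inhibitors of fusion seen as a drop in luminescence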

## Cc1nc(NC(C)c2ccccc2)c2oc3ccccc3c2n1 (configuration not stated)
[1]
  AC50: 3.06 µM (active)
[2]
  AC50: 24 µM (active)
[3]
  AC50: 35.1 µM (active)
[4]
  AC50: 46.5 µM (active)
[5]
  AC50: 3.44 µM (active)

## O=C(O)c1ccc(NC2=C(n3nnc4ccccc43)C(=O)c3ccccc3C2=O)cc1
[6]
  IC50: 40.1 µM (inactive)
[7]
  IC50: 11.6 µM (inactive)
[8]
  IC50: 7.8 µM (active)
[9]
  AC50: 4.36 µM (active)
Protein RecA
  EC50: 3 µM (active)

## Cc1c(C(=O)Nc2ccc(Cl)cc2)c2ccccn2c1CCc1ccncc1
[10]
  EC50: 2.16 µM (active)
[11]
  EC50: > 30 µM (not active)
[12]
  IC50: 0.468 µM (active)
Protein Tat
  IC50: > 100 µM (active)

## CCC(C)(C)n1nnnc1C(c1ccc(O)cc1)N1CCc2ccccc2C1 (configuration not stated)
[13]
  EC50: 0.333 µM (active)
Cells [14]
  IC50: > 29.9 µM (inactive)
[15]
  IC50: 1.26 µM (active)
Cells [16]
  EC50: > 29.9 µM (inactive)

## Cc1nc2ccc(NC(=O)c3ccc(Cl)c(S(=O)(=O)N(C)c4ccccc4)c3)cc2s1
[17]
  AC50: 3.88 µM (active)
[18]
  AC50: 58.6 µM (active)
[19]
  AC50: 35.5 µM (active)
[20]
  AC50: 3.19 µM (active)
